According to ChEMBL document CHEMBL5634139, “Novel substituted 4-(Arylethynyl)-Pyrrolo[2,3-d]pyrimidines negative allosteric modulators (NAMs) of the metabotropic glutamate receptor subtype 5 (mGlu5) Treat depressive disorder in mice” (Eur J Med Chem, 2023):
Active and inactive are the calls of the source. The rule behind the calls is not given here.

Key:
[1] = molecular target: Metabotropic glutamate receptor 5 (Rattus norvegicus, UniProt P31424); experiment: Negative allosteric modulation of rat mGluR5 expressed in HEK293 assessed as decrease in intracellular calcium incubated for 30 mins by Fluo-6 calcium dye based FLIPR assay; format: functional, cell-based
[2] = test system: Mus musculus; experiment: Antidepressant activity in chronic unpredictable mild stress induced depression C57BL/6J mouse model assessed as change in total distance travelled at 5 mg/kg,IG administration for 3 days by open field test; format: functional, organism-based; conditions: time 3.0 day
[3] = test system: Mus musculus; experiment: Antidepressant activity in chronic unpredictable mild stress induced depression C57BL/6J mouse model assessed as increase in frequency entering the central area at 5 mg/kg,IG administration for 3 days by open field test; format: functional, organism-based; conditions: time 3.0 day
[4] = test system: Mus musculus; experiment: Antidepressant activity in chronic unpredictable mild stress induced depression C57BL/6J mouse model assessed as increase in time spent in central area at 5 mg/kg,IG administration for 3 days by open field test; format: functional, organism-based; conditions: time 3.0 day
[5] = test system: Mus musculus; experiment: Antidepressant activity in chronic unpredictable mild stress induced depression C57BL/6J mouse model assessed as increase in body weight at 5 mg/kg,IG administration for 3 days; format: functional, organism-based; conditions: time 3.0 day
[6] = test system: Mus musculus; experiment: Antidepressant activity in chronic unpredictable mild stress induced depression C57BL/6J mouse model assessed as decrease in immobility time at 5 mg/kg,IG administration for 3 days by forced swimming test; format: functional, organism-based; conditions: time 3.0 day
[7] = test system: Mus musculus; experiment: Antidepressant activity in chronic unpredictable mild stress induced depression C57BL/6J mouse model assessed as decrease in immobility time at 5 mg/kg,IG administration for 3 days by tail suspension test; format: functional, organism-based; conditions: time 3.0 day
[8] = test system: Mus musculus; experiment: Antidepressant activity in chronic unpredictable mild stress induced depression C57BL/6J mouse model assessed as downregulation of CORT level in peripheral serum at 5 mg/kg,IG administration for 3 days by ELISA; format: functional, organism-based; conditions: time 3.0 day
[9] = test system: Mus musculus; experiment: Antidepressant activity in chronic unpredictable mild stress induced depression C57BL/6J mouse model assessed as upregulation of 5-HT level in peripheral serum at 5 mg/kg,IG administration for 3 days by ELISA; format: functional, organism-based; conditions: time 3.0 day

Metabotropic glutamate receptor 5, sequence (P31424 whole entry): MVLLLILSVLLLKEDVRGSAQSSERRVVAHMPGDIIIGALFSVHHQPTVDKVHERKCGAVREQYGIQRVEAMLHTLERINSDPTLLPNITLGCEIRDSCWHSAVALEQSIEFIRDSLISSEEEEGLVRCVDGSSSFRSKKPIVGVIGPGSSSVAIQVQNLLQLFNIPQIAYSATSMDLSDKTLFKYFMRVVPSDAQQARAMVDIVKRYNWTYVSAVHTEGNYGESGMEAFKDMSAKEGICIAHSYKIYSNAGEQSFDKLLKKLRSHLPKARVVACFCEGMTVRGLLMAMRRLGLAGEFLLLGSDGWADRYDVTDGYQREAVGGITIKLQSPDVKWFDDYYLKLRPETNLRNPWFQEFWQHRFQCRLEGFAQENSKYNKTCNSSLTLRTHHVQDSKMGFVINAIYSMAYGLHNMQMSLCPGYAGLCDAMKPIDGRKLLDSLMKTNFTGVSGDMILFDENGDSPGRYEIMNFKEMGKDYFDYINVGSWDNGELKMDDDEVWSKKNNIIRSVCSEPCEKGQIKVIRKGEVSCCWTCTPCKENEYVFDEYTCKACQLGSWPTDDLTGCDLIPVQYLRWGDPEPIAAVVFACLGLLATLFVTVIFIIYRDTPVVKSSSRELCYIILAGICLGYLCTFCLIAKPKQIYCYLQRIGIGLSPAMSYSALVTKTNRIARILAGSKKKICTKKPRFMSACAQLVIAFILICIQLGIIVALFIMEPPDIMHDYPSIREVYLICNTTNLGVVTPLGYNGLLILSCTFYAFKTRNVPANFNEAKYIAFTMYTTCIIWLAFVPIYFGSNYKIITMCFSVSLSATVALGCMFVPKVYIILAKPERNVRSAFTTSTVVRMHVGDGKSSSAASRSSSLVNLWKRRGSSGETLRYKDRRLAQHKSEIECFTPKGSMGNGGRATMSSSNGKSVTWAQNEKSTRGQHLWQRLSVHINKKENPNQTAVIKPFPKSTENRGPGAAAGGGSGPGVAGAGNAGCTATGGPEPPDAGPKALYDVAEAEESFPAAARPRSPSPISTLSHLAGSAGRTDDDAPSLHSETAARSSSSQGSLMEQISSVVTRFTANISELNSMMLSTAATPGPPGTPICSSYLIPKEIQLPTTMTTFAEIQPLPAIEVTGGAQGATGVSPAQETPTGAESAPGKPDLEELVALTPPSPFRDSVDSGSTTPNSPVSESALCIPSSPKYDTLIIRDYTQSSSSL

SMILES: COc1ccc(NC(=O)c2cc3c(C#Cc4ccccn4)ncnc3n2C)cc1
- IC50 [1]: 922 nM

SMILES: Cn1c(C(=O)Nc2ccc(C(C)(C)C)cc2)cc2c(C#Cc3ccc(F)cc3)ncnc21
- IC50 [1]: 2340 nM

SMILES: CNCCC(Oc1ccc(C(F)(F)F)cc1)c1ccccc1 (configuration not stated)
- Activity [2]: inactive
- Activity [3]: Active
- Activity [4]: Active
- Activity [5]: Active
- Activity [6]: Active
- Activity [7]: Active
- Activity [8]: Active
- Activity [9]: Active

SMILES: COc1ccc(C#Cc2ncnc3c2cc(C(=O)Nc2ccc(C(C)(C)C)cc2)n3C)cc1
- IC50 [1]: 734 nM

SMILES: Cn1c(C(=O)Nc2ccc(Cl)cc2)cc2c(C#Cc3ccccc3)ncnc21
- IC50 [1]: 622 nM

SMILES: COc1ccc(NC(=O)c2cc3c(C#Cc4ccc(F)cc4)ncnc3n2C)cc1
- IC50 [1]: 15.2 nM

SMILES: Cn1c(C(=O)Nc2ccc(Cl)cc2)cc2c(C#Cc3ccc(F)cc3)ncnc21
- IC50 [1]: 248 nM

SMILES: Cn1c(C(=O)Nc2cccc(Cl)c2)cc2c(C#Cc3ccccc3)ncnc21
- IC50 [1]: 529 nM

SMILES: CN(C)c1ccc(NC(=O)c2cc3c(C#Cc4ccccn4)ncnc3n2C)cc1
- IC50 [1]: 2470 nM

SMILES: Cn1c(C(=O)Nc2ccc(C(C)(C)C)cc2)cc2c(C#Cc3ccccc3)ncnc21
- IC50 [1]: 1390 nM

SMILES: Cc1ccc(C#Cc2ncnc3c2cc(C(=O)Nc2ccccc2)n3C)cc1
- IC50 [1]: 1380 nM

SMILES: Cn1c(C(=O)Nc2ccc(F)cc2)cc2c(C#Cc3ccccc3)ncnc21
- IC50 [1]: 63.6 nM

SMILES: Cn1c(C(=O)Nc2ccc(F)cc2)cc2c(C#Cc3ccccn3)ncnc21
- IC50 [1]: 3180 nM

SMILES: Cn1c(C(=O)Nc2ccccc2)cc2c(C#Cc3ccc(F)cc3)ncnc21
- IC50 [1]: 62.2 nM

SMILES: Cc1ccc(C#Cc2ncnc3c2cc(C(=O)Nc2ccc(N(C)C)cc2)n3C)cc1
- IC50 [1]: 3760 nM

SMILES: Cc1ccc(NC(=O)c2cc3c(C#Cc4ccc(F)cc4)ncnc3n2C)cc1
- IC50 [1]: 101 nM

SMILES: Cc1ccc(C#Cc2ncnc3c2cc(C(=O)Nc2ccc(C)cc2)n3C)cc1
- IC50 [1]: 947 nM

SMILES: COc1ccc(C#Cc2ncnc3c2cc(C(=O)Nc2ccccc2)n3C)cc1
- IC50 [1]: 764 nM

SMILES: Cn1c(C(=O)Nc2ccc(OC(F)(F)F)cc2)cc2c(C#Cc3ccccc3)ncnc21
- IC50 [1]: 308 nM

SMILES: Cn1c(C(=O)Nc2ccccc2)cc2c(C#Cc3ccccc3)ncnc21
- IC50 [1]: 75.4 nM
